Data reported in US20100298141A1, “SUBSTITUTED PYRIDINE N-OXIDE HERBICIDES” (E. I. DU PONT DE NEMOURS AND COMPANY, priority 2007, published 2010).

Tests used:
[1] = tested on: corn; test: Test A pre-/postemergence greenhouse test; format: in vivo, Zea mays; conditions: for Plant response rating, Corn: 0 to 100 scale where 0 is no effect and 100 is complete control; for Corn plant response rating: 0 to 100 scale
How it was run: (§1)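 Each test compound, dissolved in a non-phytotoxic solvent mixture with surfactant, was sprayed directly onto seeded soil (loam/sand blend) and, at the same moment, onto seedlings carrying one to two leaves. Around ten greenhouse days later, plants were rated visually for injury relative to untreated controls.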

[2] = tested on: wheat; test: Test A pre-/postemergence greenhouse test; format: in vivo, Triticum aestivum; conditions: for Plant response rating, Wheat: 0 to 100 scale where 0 is no effect and 100 is complete control; for Wheat plant response rating: 0 to 100 scale
How it was run: as §1

[3] = tested on: giant foxtail; test: Test A pre-/postemergence greenhouse test; format: in vivo, Setaria faberi; conditions: for Plant response rating, Foxtail, Giant: 0 to 100 scale where 0 is no effect and 100 is complete control; for Foxtail, Giant plant response rating: 0 to 100 scale
How it was run: as §1

[4] = tested on: soybean; test: Test C pre-/postemergence test; format: in vivo, Glycine max
How it was run: (§2)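 Test chemicals were formulated with surfactant in a non-phytotoxic solvent and sprayed both on freshly planted seeds (preemergence) and on 1- to 4-leaf plants of 2–18 cm (postemergence). Flooded-paddy pots received compound directly into 3 cm of standing water, maintained for the test.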

[5] = tested on: velvetleaf; test: Test A pre-/postemergence greenhouse test; format: in vivo, Abutilon theophrasti; conditions: for Plant response rating, Velvetleaf: 0 to 100 scale where 0 is no effect and 100 is complete control; for Velvetleaf plant response rating: 0 to 100 scale
How it was run: as §1

[6] = tested on: pigweed; test: Test C pre-/postemergence test; format: in vivo, Amaranthus retroflexus; conditions: for Plant response rating, Pigweed: 31 g ai/ha, scale 0 to 100 (0 no effect, 100 complete control)
How it was run: as §2

[7] = tested on: giant foxtail; test: Test C pre-/postemergence test; format: in vivo, Setaria faberii
How it was run: as §2

[8] = tested on: catchweed bedstraw; test: Test C pre-/postemergence test; format: in vivo, Galium aparine; conditions: for Plant response rating, Galium: 31 g ai/ha, scale 0 to 100 (0 no effect, 100 complete control)
How it was run: as §2

[9] = tested on: downy brome; test: Test C pre-/postemergence test; format: in vivo, Bromus tectorum; conditions: for Plant response rating, Bromegrass, Downy: 31 g ai/ha, scale 0 to 100 (0 no effect, 100 complete control)
How it was run: as §2

[10] = tested on: morningglory; test: Test C pre-/postemergence test; format: in vivo, Ipomoea coccinea; conditions: for Plant response rating, Morningglory: 31 g ai/ha, scale 0 to 100 (0 no effect, 100 complete control)
How it was run: as §2

[11] = tested on: lambsquarters; test: Test C pre-/postemergence test; format: in vivo, Chenopodium album
How it was run: as §2

[12] = tested on: Surinam grass; test: Test C pre-/postemergence test; format: in vivo, Brachiaria decumbens; conditions: for Plant response rating, Surinam Grass: 31 g ai/ha, scale 0 to 100 (0 no effect, 100 complete control)
How it was run: as §2

[13] = tested on: crabgrass; test: Test C pre-/postemergence test; format: in vivo, Digitaria sanguinalis; conditions: for Plant response rating, Crabgrass, Large: 31 g ai/ha, scale 0 to 100 (0 no effect, 100 complete control)
How it was run: as §2

[14] = tested on: barnyardgrass; test: Test C flooded paddy test; format: in vivo, Echinochloa crus-galli; conditions: Flood
How it was run: (§3)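 Flooded 3 cm over soil; compound into paddy water; depth kept constant. Greenhouse 13–15 d.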

[15] = tested on: johnsongrass; test: Test C pre-/postemergence test; format: in vivo, Sorghum halepense; conditions: for Plant response rating, Johnsongrass: 31 g ai/ha, scale 0 to 100 (0 no effect, 100 complete control)
How it was run: as §2

[16] = tested on: bermudagrass; test: Test C pre-/postemergence test; format: in vivo, Cynodon dactylon; conditions: for Plant response rating, Bermudagrass: 31 g ai/ha
How it was run: as §2

[17] = tested on: rice; test: Test C flooded paddy test; format: in vivo, Oryza sativa; conditions: Flood
How it was run: as §3

[18] = Postemergence, 500 g ai/ha, 0 is no effect, 100 is complete control
[19] = Preemergence, 125 g ai/ha, 0 no effect, 100 complete control
[20] = Preemergence, 500 g ai/ha, 0 no effect, 100 complete control
[21] = 62 g ai/ha, Preemergence, scale 0 to 100
[22] = 125 g ai/ha, preemergence, scale 0 (no effect) to 100 (complete control)
[23] = Preemergence, 31 g ai/ha, scale 0 to 100 (0 no effect, 100 complete control)
[24] = preemergence, 250 g ai/ha, scale 0 (no effect) to 100 (complete control)
[25] = 62 g ai/ha, scale 0 to 100 (0 no effect, 100 complete control)
[26] = 250 g ai/ha, scale 0 to 100, 0 no effect, 100 complete control, 13 to 15 days
[27] = 62 g ai/ha, Preemergence, scale 0 to 100 (0 no effect, 100 complete control)
[28] = Preemergence, scale 0 to 100 (0 no effect, 100 complete control)
[29] = Postemergence, 125 g ai/ha, 0 is no effect, 100 is complete control
[30] = preemergence, 125 g ai/ha, scale 0 (no effect) to 100 (complete control)
[31] = 31 g ai/ha, scale 0 to 100 (0 no effect, 100 complete control)
[32] = 62 g ai/ha, scale 0 to 100, 0 no effect, 100 complete control, 13 to 15 days
[33] = 125 g ai/ha, scale 0 to 100, 0 no effect, 100 complete control, 13 to 15 days
[34] = 250 g ai/ha, scale 0 to 100 (0 no effect, 100 complete control)

## Cc1cc[n+]([O-])c(S(=O)(=O)Cc2c(C(F)(F)C(F)(F)F)nn(C)c2OCC(F)(F)F)c1 [Compound 99]
[1]; Postemergence, 125 g ai/ha
  Plant response rating, Corn: 40
[1]; [18]
  Corn plant response rating: 60
[1]; [19]
  Corn plant response rating: 0
[1]; [20]
  Corn plant response rating: 30
[2]; Postemergence, 125 g ai/ha
  Plant response rating, Wheat: 50
[2]; [18]
  Wheat plant response rating: 70
[2]; [19]
  Wheat plant response rating: 50
[2]; [20]
  Wheat plant response rating: 90
[3]; Postemergence, 125 g ai/ha
  Plant response rating, Foxtail, Giant: 70
[3]; [18]
  Foxtail, Giant plant response rating: 80
[3]; [19]
  Foxtail, Giant plant response rating: 90
[3]; [20]
  Foxtail, Giant plant response rating: 100
[4]; [21]
  Soybean plant response rating: 25
[4]; [22]
  Soybean plant response rating: 30
[4]; [23]
  Plant response rating, Soybean: 0
[4]; [24]
  Soybean plant response rating: 98
[5]; Postemergence, 125 g ai/ha
  Plant response rating, Velvetleaf: 30
[5]; [18]
  Velvetleaf plant response rating: 60
[5]; [19]
  Velvetleaf plant response rating: 20
[5]; [20]
  Velvetleaf plant response rating: 100
[6]; [21]
  Pigweed plant response rating: 100
[6]; [22]
  Pigweed plant response rating: 100
[6]; Preemergence
  Plant response rating, Pigweed: 100
[6]; [24]
  Pigweed plant response rating: 100
[7]; [21]
  Foxtail, Giant plant response rating: 85
[7]; [22]
  Foxtail, Giant plant response rating: 100
[7]; [24]
  Foxtail, Giant plant response rating: 100
[8]; [21]
  Galium plant response rating: 100
[8]; [22]
  Galium plant response rating: 100
[8]; Preemergence
  Plant response rating, Galium: 100
[8]; [24]
  Galium plant response rating: 100
[9]; [21]
  Bromegrass, Downy plant response rating: 50
[9]; [22]
  Bromegrass, Downy plant response rating: 60
[9]; Preemergence
  Plant response rating, Bromegrass, Downy: 30
[9]; [24]
  Bromegrass, Downy plant response rating: 70
[10]; [21]
  Morningglory plant response rating: 100
[10]; [22]
  Morningglory plant response rating: 100
[10]; Preemergence
  Plant response rating, Morningglory: 65
[10]; [24]
  Morningglory plant response rating: 100
[11]; [21]
  Lambsquarters plant response rating: 100
[11]; [22]
  Lambsquarters plant response rating: 100
[11]; [23]
  Plant response rating, Lambsquarters: 100
[11]; [24]
  Lambsquarters plant response rating: 100
[12]; [21]
  Surinam Grass plant response rating: 75
[12]; [22]
  Surinam Grass plant response rating: 95
[12]; Preemergence
  Plant response rating, Surinam Grass: 0
[12]; [24]
  Surinam Grass plant response rating: 95
[13]; [21]
  Crabgrass, Large plant response rating: 100
[13]; [22]
  Crabgrass, Large plant response rating: 100
[13]; Preemergence
  Plant response rating, Crabgrass, Large: 80
[13]; [24]
  Crabgrass, Large plant response rating: 100
[14]; [25]
  Plant response rating, Barnyardgrass: 0
[14]; [26]
  Plant response rating, Barnyardgrass: 20
[15]; [21]
  Johnsongrass plant response rating: 90
[15]; [22]
  Johnsongrass plant response rating: 100
[15]; Preemergence
  Plant response rating, Johnsongrass: 40
[15]; [24]
  Johnsongrass plant response rating: 100
[16]; [27]
  Bermudagrass plant response rating: 100
[16]; [22]
  Bermudagrass plant response rating: 100
[16]; [28]
  Plant response rating, Bermudagrass: 85
[16]; [24]
  Bermudagrass plant response rating: 100
[17]; [25]
  Plant response rating, Rice: 0
[17]; [26]
  Plant response rating, Rice: 45

## Cn1nc(C(F)(F)F)c(CS(=O)(=O)c2cccc[n+]2[O-])c1OCC(F)(F)F [Compound 29]
[1]; [29]
  Corn plant response rating: 30
[1]; [18]
  Corn plant response rating: 60
[1]; [19]
  Corn plant response rating: 0
[1]; Preemergence, 500 g ai/ha
  Plant response rating, Corn: 70
[2]; [29]
  Wheat plant response rating: 50
[2]; [18]
  Wheat plant response rating: 60
[2]; [19]
  Wheat plant response rating: 60
[2]; Preemergence, 500 g ai/ha
  Plant response rating, Wheat: 90
[3]; [29]
  Foxtail, Giant plant response rating: 80
[3]; [18]
  Foxtail, Giant plant response rating: 90
[3]; [19]
  Foxtail, Giant plant response rating: 100
[3]; Preemergence, 500 g ai/ha
  Plant response rating, Foxtail, Giant: 100
[4]; [21]
  Soybean plant response rating: 70
[5]; [29]
  Velvetleaf plant response rating: 40
[5]; [18]
  Velvetleaf plant response rating: 70
[5]; [19]
  Velvetleaf plant response rating: 40
[5]; Preemergence, 500 g ai/ha
  Plant response rating, Velvetleaf: 100
[6]; [21]
  Pigweed plant response rating: 100
[6]; Preemergence
  Plant response rating, Pigweed: 100
[7]; [21]
  Foxtail, Giant plant response rating: 100
[7]; [23]
  Plant response rating, Foxtail, Giant: 100
[7]; Preemergence, 250 g ai/ha
  Plant response rating (0 to 100), Foxtail, Giant: 100
[8]; [21]
  Galium plant response rating: 100
[8]; Preemergence
  Plant response rating, Galium: 100
[8]; Preemergence, 250 g ai/ha
  Plant response rating (0 to 100), Galium: 100
[9]; [21]
  Bromegrass, Downy plant response rating: 20
[9]; Preemergence
  Plant response rating, Bromegrass, Downy: 0
[9]; Preemergence, 250 g ai/ha
  Plant response rating (0 to 100), Bromegrass, Downy: 60
[9]; [30]
  Bromegrass, Downy plant response rating: 60
[10]; [21]
  Morningglory plant response rating: 10
[10]; Preemergence
  Plant response rating, Morningglory: 0
[11]; [21]
  Lambsquarters plant response rating: 0
[12]; [21]
  Surinam Grass plant response rating: 75
[12]; Preemergence
  Plant response rating, Surinam Grass: 75
[13]; [21]
  Crabgrass, Large plant response rating: 100
[13]; Preemergence
  Plant response rating, Crabgrass, Large: 100
[13]; Preemergence, 250 g ai/ha
  Plant response rating (0 to 100), Crabgrass, Large: 100
[14]; [31]
  Plant response rating, Barnyardgrass: 0
[14]; [32]
  Plant response rating, Barnyardgrass: 0
[14]; [33]
  Plant response rating, Barnyardgrass: 40
[14]; [34]
  Plant response rating, Barnyardgrass: 80
[15]; [21]
  Johnsongrass plant response rating: 100
[15]; Preemergence
  Plant response rating, Johnsongrass: 100
[15]; Preemergence, 250 g ai/ha
  Plant response rating (0 to 100), Johnsongrass: 100
[16]; [27]
  Bermudagrass plant response rating: 100
[16]; [28]
  Plant response rating, Bermudagrass: 100
[16]; Preemergence, 250 g ai/ha
  Plant response rating (0 to 100), Bermudagrass: 100
[16]; [30]
  Bermudagrass plant response rating: 100
[17]; [31]
  Plant response rating, Rice: 0
[17]; [32]
  Plant response rating, Rice: 0
[17]; [33]
  Plant response rating, Rice: 40
[17]; [34]
  Plant response rating, Rice: 80
